According to the supplement of paper PMC10307832:

How the values were obtained:
Assay in all cases: relative viability (nuclei count vs DMSO), 5 days (fraction); higher = more cells survive
LC-2-ad = system: LC-2-ad
In short: (§1)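 Cells from lung cancer lines were seeded into 1536-well plates and, one day later, dosed by pin tool. Treatments were either a single drug or a fixed dose of an anchor drug with five library-drug doses (not always all listed) in √10 steps. After 5 days, nuclei were stained in a one-step fixation (final 0.05% Triton X-100, 1% formaldehyde, 1 ug/ml Hoechst) and counted on 4× images, and relative viability is the treated-to-vehicle nuclei ratio, as the median of duplicate plates.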

UMC-11 = system: UMC-11
In short: as §1

CAL-12T = system: CAL-12T
In short: as §1

HCC-827 = system: HCC-827
In short: as §1

RERF-LC-KJ = system: RERF-LC-KJ
In short: as §1

LU99A = system: LU99A
In short: as §1

201T = system: 201T
In short: as §1

LCLC-103H = system: LCLC-103H
In short: as §1

NCI-H322M = system: NCI-H322M
In short: as §1

NCI-H2228 = system: NCI-H2228
In short: as §1

LK-2 = system: LK-2
In short: as §1

NCI-H1792 = system: NCI-H1792
In short: as §1

NCI-H1437 = system: NCI-H1437
In short: as §1

BEN = system: BEN
In short: as §1

NCI-H1651 = system: NCI-H1651
In short: as §1

NCI-H23 = system: NCI-H23
In short: as §1

COR-L 105 = system: COR-L 105
In short: as §1

NCI-H2405 = system: NCI-H2405
In short: as §1

HCC-15 = system: HCC-15
In short: as §1

HARA = system: HARA
In short: as §1

NCI-H2085 = system: NCI-H2085
In short: as §1

H3255 = system: H3255
In short: as §1

LXF-289 = system: LXF-289
In short: as §1

Cc1cnc(-c2cnc(NCCNc3ccc(C#N)cn3)nc2-c2ccc(Cl)cc2Cl)[nH]1 + CS(=O)(=O)N1CCN(Cc2cc3nc(-c4cccc5[nH]ncc45)nc(N4CCOCC4)c3s2)CC1 [Pictilisib] (partner 1 µM)
relative viability (LC-2-ad; first compound 0.08 µM): 0.489
relative viability (LC-2-ad; first compound 0.8 µM): 0.441
relative viability (LC-2-ad; first compound 2.53 µM): 0.468
relative viability (UMC-11; first compound 0.08 µM): 0.871
relative viability (UMC-11; first compound 0.253 µM): 0.777
relative viability (UMC-11; first compound 0.8 µM): 0.496
relative viability (UMC-11; first compound 2.53 µM): 0.859
relative viability (CAL-12T; first compound 0.253 µM): 0.52
relative viability (CAL-12T; first compound 2.53 µM): 0.53
relative viability (HCC-827; first compound 0.08 µM): 1.02
relative viability (HCC-827; first compound 0.8 µM): 0.951
relative viability (HCC-827; first compound 2.53 µM): 0.813
relative viability (RERF-LC-KJ; first compound 0.08 µM): 0.662
relative viability (RERF-LC-KJ; first compound 0.253 µM): 0.496
relative viability (RERF-LC-KJ; first compound 0.8 µM): 0.497
relative viability (RERF-LC-KJ; first compound 2.53 µM): 0.548
relative viability (LU99A; first compound 0.08 µM): 0.314
relative viability (LU99A; first compound 0.253 µM): 0.348
relative viability (LU99A; first compound 0.8 µM): 0.348
relative viability (LU99A; first compound 2.53 µM): 0.41
relative viability (201T; first compound 0.08 µM): 0.713
relative viability (201T; first compound 0.253 µM): 0.629
relative viability (201T; first compound 0.8 µM): 0.724
relative viability (201T; first compound 2.53 µM): 0.723
relative viability (LCLC-103H; first compound 0.08 µM): 0.675
relative viability (LCLC-103H; first compound 0.253 µM): 0.542
relative viability (LCLC-103H; first compound 0.8 µM): 0.696
relative viability (LCLC-103H; first compound 2.53 µM): 0.619
relative viability (NCI-H322M; first compound 0.08 µM): 0.59
relative viability (NCI-H322M; first compound 0.253 µM): 0.523
relative viability (NCI-H322M; first compound 0.8 µM): 0.413
relative viability (NCI-H322M; first compound 2.53 µM): 0.538
relative viability (NCI-H2228; first compound 0.08 µM): 0.263
relative viability (NCI-H2228; first compound 0.253 µM): 0.229
relative viability (NCI-H2228; first compound 0.8 µM): 0.569
relative viability (NCI-H2228; first compound 2.53 µM): 0.287
relative viability (LK-2; first compound 0.08 µM): 0.646
relative viability (LK-2; first compound 0.253 µM): 0.577
relative viability (LK-2; first compound 0.8 µM): 0.618
relative viability (LK-2; first compound 2.53 µM): 1.11
relative viability (NCI-H1792; first compound 0.08 µM): 0.34
relative viability (NCI-H1792; first compound 0.253 µM): 0.268
relative viability (NCI-H1792; first compound 0.8 µM): 0.25
relative viability (NCI-H1792; first compound 2.53 µM): 0.385
relative viability (NCI-H1437; first compound 0.08 µM): 0.521
relative viability (NCI-H1437; first compound 0.253 µM): 0.399
relative viability (NCI-H1437; first compound 0.8 µM): 0.483
relative viability (NCI-H1437; first compound 2.53 µM): 0.379
relative viability (BEN; first compound 0.08 µM): 0.572
relative viability (BEN; first compound 0.253 µM): 0.596
relative viability (BEN; first compound 0.8 µM): 0.612
relative viability (BEN; first compound 2.53 µM): 0.648
relative viability (NCI-H1651; first compound 0.08 µM): 0.67
relative viability (NCI-H1651; first compound 0.253 µM): 0.485
relative viability (NCI-H1651; first compound 0.8 µM): 0.524
relative viability (NCI-H1651; first compound 2.53 µM): 0.686
relative viability (NCI-H23; first compound 0.08 µM): 0.511
relative viability (NCI-H23; first compound 0.253 µM): 0.56
relative viability (NCI-H23; first compound 0.8 µM): 0.535
relative viability (NCI-H23; first compound 2.53 µM): 0.613
relative viability (COR-L 105; first compound 0.08 µM): 0.344
relative viability (COR-L 105; first compound 0.253 µM): 0.468
relative viability (COR-L 105; first compound 0.8 µM): 0.176
relative viability (COR-L 105; first compound 2.53 µM): 0.385
relative viability (NCI-H2405; first compound 0.08 µM): 0.472
relative viability (NCI-H2405; first compound 0.253 µM): 0.485
relative viability (NCI-H2405; first compound 0.8 µM): 0.422
relative viability (NCI-H2405; first compound 2.53 µM): 0.412
relative viability (HCC-15; first compound 0.08 µM): 0.681
relative viability (HCC-15; first compound 0.253 µM): 0.669
relative viability (HCC-15; first compound 0.8 µM): 0.746
relative viability (HCC-15; first compound 2.53 µM): 0.739
relative viability (HARA; first compound 0.08 µM): 0.398
relative viability (HARA; first compound 0.253 µM): 0.414
relative viability (HARA; first compound 0.8 µM): 0.433
relative viability (HARA; first compound 2.53 µM): 0.454
relative viability (NCI-H2085; first compound 0.08 µM): 0.551
relative viability (NCI-H2085; first compound 0.253 µM): 0.517
relative viability (NCI-H2085; first compound 0.8 µM): 0.455
relative viability (NCI-H2085; first compound 2.53 µM): 0.43
relative viability (H3255; first compound 0.08 µM): 0.554
relative viability (H3255; first compound 0.253 µM): 0.463
relative viability (H3255; first compound 0.8 µM): 0.469
relative viability (H3255; first compound 2.53 µM): 0.476
relative viability (LXF-289; first compound 0.08 µM): 0.841
relative viability (LXF-289; first compound 0.253 µM): 0.745
relative viability (LXF-289; first compound 0.8 µM): 0.845
relative viability (LXF-289; first compound 2.53 µM): 0.877
